Measurements reported in patent US5430062A, “Stilbene derivatives as anticancer agents” (priority 1993, dated 1995).
Where a name gives a salt, the structure may show the parent alone. Read-outs that look alike come from different tables or passages of the source.

Columns and labels:
tubulin = assay: Inhibition of tubulin polymerization (turbidimetry); assay type: biochemical, bovine
MLM melanoma = assay: MTT cytotoxicity assay, MLM; settings: […], read-out: Cytotoxicity ED50, MLM
A-549 lung carcinoma = assay: MTT cytotoxicity assay, A-549; settings: Homo sapiens, A549, […], read-out: Cytotoxicity ED50, A-549
MCF-7 breast carcinoma = assay: MTT cytotoxicity assay, MCF-7; settings: Homo sapiens, MCF7, […], read-out: Cytotoxicity ED50, MCF-7
[1] = test system: HT-29 colon adenocarcinoma; assay: MTT cytotoxicity assay, HT-29; settings: Homo sapiens, HT-29, […], read-out: Cytotoxicity ED50, HT-29
SKMEL-5 melanoma = assay: MTT cytotoxicity assay, SKMEL-5; settings: Homo sapiens, SK-MEL-5, […], read-out: Cytotoxicity ED50, SKMEL-5
[2] = second series (Tables V-VII, IX), read-out: Inhibition of Tubulin Polymerization IC50 (±S.D.)

Row | SMILES | inhibition of tubulin polymerization (class) (tubulin) | IC50 (MLM melanoma) | IC50 (A-549 lung carcinoma) | IC50 (MCF-7 breast carcinoma) | IC50 [1] | IC50 (SKMEL-5 melanoma) | inhibition of tubulin polymerization (in words) (tubulin) | IC50 (tubulin; first series (Table VIII and text), 37° C., 20 min, read-out: Tubulin polymerization IC50 (±S.D.)) | IC50 (tubulin; [2]) | IC50 (tubulin; Table X, different glutamate preparation (1M monosodium glutamate and GTP), read-out: inhibn of tubulin polymn IC50 (±SD)) | IC50 (tubulin; Table X footnote b, different glutamate preparation, read-out: tubulin polymerization IC50, standard agents)
1 | COc1ccc(/C=C\c2ccc(OC)c(OC)c2OC)cc1 [5d, (Z)-1-(4-Methoxyphenyl)-2-(2,3,4-trimethoxy-phenyl)ethene] | inactive | 10.9 µM | 0.97 µM | 0.23 µM | 1 µM | 1.1 µM | – | – | – | – | –
2 | COc1ccc(NC(=O)c2cc(OC)c(OC)c(OC)c2)cc1 [11a, 3,4,5-Trimethoxy-N-(4-methoxyphenyl)benzamide] | – | > 25 µM | 14.1 µM | 12.2 µM | 22.7 µM | > 25 µM | lower inhibitory activity | – | – | – | –
3 | COc1ccc(NC(=O)c2cc(OC)cc(OC)c2)cc1 [11d] | – | > 25 µM | 9.02 µM | 5.47 µM | 14.5 µM | 11.9 µM | lower inhibitory activity | – | – | – | –
4 | COc1ccc(CNc2cc(OC)c(OC)c(OC)c2)cc1 [12c, 4-Methoxy-N-(3,4,5-trimethoxyphenyl)benzylamine] | – | > 25 µM | 0.83 µM | 0.86 µM | 2.24 µM | 1.13 µM | lower inhibitory activity | > 50 µM | – | – | –
5 | COc1ccc(/C=C\c2cc(OC)c(OCc3ccccc3)c(OC)c2)cc1 [15j, (Z)-1-[4-(Benzyloxy)-3,5-(dimethoxy)phenyl]-2-(4-methoxyphenyl)ethene] | – | – | – | – | – | – | – | – | > 40 µM | – | –
6 | COc1ccc(/C=C\c2cc(OC)c(O[Si](C)(C)C(C)(C)C)c(OC)c2)cc1 [15k, (Z)-1-[4-{(t-Butyldimethylsilyl)-oxy}-3,5-(dimethoxy)-phenyl]-2-(4-methoxyphenyl)ethene] | – | > 25 µM | > 25 µM | > 25 µM | 9 µM | > 25 µM | – | – | > 40 µM | – | –
7 | COc1ccc(/C=C\c2cc(OC)c(OC(C)=O)c(OC)c2)cc1 [15l, (Z)-1-(4-Acetoxy-3,5-dimethoxyphenyl)-2-(4-methoxyphenyl)ethene] | – | > 25 µM | 21.5 µM | > 25 µM | 8.7 µM | 0.6 µM | – | – | 24 µM | – | –
8 | CCc1ccc(/C=C/c2cc(OC)c(OC)c(OC)c2)cc1 [16e, (E)-(4-Ethylphenyl)-2-(3,4,5-trimethoxyphenyl)ethene] | – | 0.22 µM | 0.13 µM | 1.2 µM | 0.11 µM | 0.17 µM | – | – | – | – | –
9 | COc1cc(/C=C/c2ccc(C(C)(C)C)cc2)cc(OC)c1OC [16g, (E)-1-(4-t-Butylphenyl)-2-(3,4,5-trimethoxyphenyl)ethene] | – | > 25 µM | > 25 µM | > 25 µM | > 25 µM | > 25 µM | – | – | – | – | –
10 | COc1ccc(/C=C/c2ccc(OC)c(OC)c2)cc1 [16h, (E)-(4-Methoxyphenyl)-2-(3,4-dimethoxyphenyl)ethene] | – | > 25 µM | 11.7 µM | > 25 µM | > 25 µM | > 25 µM | – | – | – | – | –
11 | COc1ccc(/C=C/c2cc(OC)cc(OC)c2)cc1 [16i, (E)-1-(3,5-Dimethoxyphenyl)-2-(4-methoxyphenyl)ethene] | – | > 25 µM | 7.5 µM | 9.7 µM | 6.9 µM | 0.88 µM | – | – | – | – | –
12 | COc1ccc(/C=C/c2cc(OC)c(O[Si](C)(C)C(C)(C)C)c(OC)c2)cc1 [16k, (E)-1-[4-{(t-Butyldimethylsilyl)-oxy}-3,5-(dimethoxy)-phenyl]-2-(4-methoxyphenyl)ethene] | – | > 25 µM | > 25 µM | > 25 µM | > 25 µM | > 25 µM | – | – | – | – | –
13 | COc1ccc(/C=C/c2cc(OC)c(OC(C)=O)c(OC)c2)cc1 [16l, (E)-1-(4-Acetoxy-3,5-dimethoxyphenyl)-2-(4-methoxy-phenyl)ethene] | – | 21 µM | 16.4 µM | 19.4 µM | 11.7 µM | 10.2 µM | – | – | – | – | –
14 | COc1cc(CCc2ccc(C)cc2)cc(OC)c1OC [17d, 1-(4-Methylphenyl)-2-(3,4,5-trimethoxyphenyl)ethane] | – | 1.4 µM | 0.18 µM | 0.22 µM | 0.1 µM | 0.27 µM | – | – | 21 µM | – | –
15 | CCc1ccc(CCc2cc(OC)c(OC)c(OC)c2)cc1 [17e, 1-(4-Ethylphenyl)-2-(3,4,5-trimethoxyphenyl)ethane] | – | 2.7 µM | 0.088 µM | 0.16 µM | 0.016 µM | 0.047 µM | – | – | 18 µM | – | –
16 | COc1ccc(/C(=C\c2cc(OC)c(OC)c(OC)c2)C(=O)O)cc1 [23c, (E)-2-(4-Methoxyphenyl)-3-(3,4,5-trimethoxyphenyl)-prop-2-enoic acid] | – | > 25 µM | 5.2 µM | 1.9 µM | 5.9 µM | 2.3 µM | – | – | > 40 µM | – | –
17 | COc1ccc2ccc3cc(OC)c(OC)c(OC)c3c2c1 [32b, 2,3,4,6-Tetramethoxyphenanthrene] | – | > 25 µM | > 25 µM | > 25 µM | 1.1 µM | 12.5 µM | – | – | > 40 µM | – | –
18 | COc1ccc2c(ccc3cc(OC)c(OC)c(OC)c32)c1 [32c, 2,3,4,7-Tetramethoxyphenanthrene] | – | > 25 µM | > 25 µM | > 25 µM | > 25 µM | > 25 µM | – | – | > 40 µM | – | –
19 | COc1cc2ccc3c(OC)cccc3c2c(OC)c1OC [32d, 2,3,4,8-Tetramethoxyphenanthrene] | – | > 25 µM | > 25 µM | 14.6 µM | 9.3 µM | 12 µM | – | – | > 40 µM | – | –
20 | CCCc1ccc(NCc2cc(OC)c(OC)c(OC)c2)cc1 [110g, 4-n-Propyl-N-(3,4,5-trimethoxybenzyl)aniline Hydrochloride] | – | – | – | – | – | – | – | – | – | > 40 µM | –
21 | COc1cccc2c1C(=O)c1c(O)c3c(c(O)c1C2=O)C[C@@](O)(C(=O)CO)C[C@@H]3O[C@H]1C[C@H](N)[C@H](O)[C@H](C)O1 [Adriamycin, reference compound] | – | 0.13 µM | 0.029 µM | 0.031 µM | 0.055 µM | 0.032 µM | – | – | – | – | –
22 | COc1cc(/C=C/c2ccc([N+](=O)[O-])cc2)cc(OC)c1OC [compound 6l, (E)-1-(4-Nitrophenyl)-2-(3,4,5-trimethoxyphenyl)ethene] | – | > 25 µM | > 25 µM | > 25 µM | > 25 µM | > 25 µM | – | – | – | – | –
23 | COc1cc(/C=C/c2ccc(O)cc2)cc(OC)c1OC [compound 6o, (E)-1-(4-Hydroxyphenyl)-2-(3,4,5-trimethoxyphenyl)ethene] | – | 24.2 µM | > 25 µM | 18.6 µM | > 25 µM | 11.6 µM | – | – | – | – | –
24 | COc1cc(CCc2ccc(NC(C)=O)cc2)cc(OC)c1OC [compound 8m, 1-(4-Acetamidophenyl)-2-(3,4,5-trimethoxyphenyl)ethane] | – | > 25 µM | > 25 µM | > 25 µM | > 25 µM | > 25 µM | – | – | – | – | –
25 | COc1ccc(/C=C\c2cc(OC)c(OC)c(OC)c2)cc1 [compound E, reference compound] | – | – | – | – | – | – | – | – | – | – | 1.2 ± 0.05 µM
